The values below come from article PMC9687241 (Biomolecules, 2022).

Experiment [1] deals with T1, SARS-CoV-2 M^pro (Severe acute respiratory syndrome coronavirus 2, UniProt P0DTD1). It counts as biochemical. As to conditions: 0.2 µM M^pro, 2 h incubation at r.t., 4 µM substrate, Hill equation fit; read-out: Inhibition constants, Ki.
The target in experiment [2] is T1, SARS-CoV-2 M^pro. The experiment can be described thus: ESI MS of metallodrug-protein adduct formation. Type of experiment: binding. The following applies: protein-to-metal ratio 1:3 (1:1 for Au(PEt3)Br), 37 °C, 4 h incubation (up to 24 h).

The structures appear in SMILES notation.

The Ki is the dissociation constant of the complex between target and ligand, obtained from inhibition or displacement. For the molecule `CC[P](CC)(CC)[Au][I]` [Au(PEt3)I], the Ki at SARS-CoV-2 M^pro [1] was 2120 ± 96 nM.

For the molecule `CC[P](CC)(CC)[Au][Br]` [Au(PEt3)Br], the Ki on SARS-CoV-2 M^pro [1] came out at 440 ± 22 nM.

On to `CCP(CC)CC.[Au+].[Cl-]` [Au(PEt3)Cl], for which, on SARS-CoV-2 M^pro [1], the Ki amounted to 660 ± 26 nM.

As for `CCCC[n+]1ccn(C)[c]1[Au-][Cl]` [Au(NHC)Cl], the Ki at SARS-CoV-2 M^pro [1] is 870 ± 40 nM. The “protein metalation / adduct formation (ESI MS)” value on SARS-CoV-2 M^pro [2] is “formation of a mono adduct”.
